US9744203B2, “Application of composition in preparing health care product or medicine for preventing and treating leukopenia caused by radiotherapy and chemotherapy” (JIANGZHONG PHARMACEUTICAL CO., LTD., priority 2012, dated 2017)
Values joined by “and” are separate entries in the source; they are usually repeats but may differ in a detail not shown here. Equal entries are not always repeated.

Assays:
Assay type in all cases: in vivo
[1] = system: leucocyte reduction in mice induced by cyclophosphamide; experiment: Peripheral leucocyte assay, leucocyte reduction in mice induced by cyclophosphamide; conditions: cyclophosphamide model; positive control batyl alcohol 100 mg/kg intragastric, 15 days
Method: (§1) Mice were randomly divided into 6 groups with 10 animals per group, i.e., normal control group, model control group, positive control group, and groups on low, medium and high doses of Composition 1. The low-, medium- and high-dose groups were intragastrically given Composition 1 at a dose of 2.0 g crude drug/kg, 4.0 g crude drug/kg, and 12.0 g crude drug/kg, respectively; the positive control group was intragastrically given batyl alcohol (100 mg/kg) at a dose of 0.1 ml/10 g body weight; the normal control group and the model control group were intragastrically given an equivalent volume of distilled water; and the dosage regime lasted for 15 days with one dose per day. From day 9 of intragastrical administration, all mice in each group, except the normal control group, were given cyclophosphamide at a dose of 40 mg/kg each day via subcutaneous injection for 3 consecutive days. One hour after the intragastrical administration on day 15, blood and femurs were harvested for tests.
40 μL blood was drawn from the tail vein of the mice and transferred into a EDTA-K2 anticoagulative tube, into which 160 μL dilution liquid was added, and then assayed in an automatic blood cell analyzer.
Mice were randomly divided into 6 groups with 10 animals per group, i.e., normal control group, model control group, positive control group, and groups on low, medium and high doses of Composition 2. […]

[2] = system: leucocyte reduction in mice induced by cyclophosphamide; experiment: Bone marrow nucleated cell count, mice injected with cyclophosphamide; conditions: cyclophosphamide model; one femur, day 15; positive control batyl alcohol 100 mg/kg intragastric
Method: as §1
(§2) Mice were sacrificed by cervical dislocation. The left femur was removed and flushed with a 10 ml solution of 3% acetic acid to obtain the cells in the bone marrow. The number of cells in 4 large grids on a hemacytometer was counted, and the number was multiplied by 2.5×10^4 to obtain the BMC in one femur.

[3] = system: leucocyte reduction in mice induced by cyclophosphamide; experiment: Bone marrow DNA content determination, mice injected with cyclophosphamide; conditions: cyclophosphamide model; absorbance at 268 nm, day 15; positive control batyl alcohol 100 mg/kg intragastric
Method: as §1
A 7 mm section was dissected from the middle of the right femur. The whole bone marrow was flushed into a centrifuge tube with a 10 mL solution of 0.005 mol/L CaCl2, placed in a refrigerator at 4° C. for 30 min, and then centrifuged at 2500 r/min for 15 min. […] The supernatant was removed and its absorbance at 268 nm was measured.

[4] = system: leucocyte reduction in mice induced by cytarabine; experiment: Peripheral leucocyte assay, leucocyte reduction in mice induced by cytarabine; conditions: cytarabine model; positive control batyl alcohol 100 mg/kg intragastric, 15 days
Method: [Worded in the source for another target; used here, by the source, with some conditions changed.] as §1
(§3) 40 μL blood was drawn from the tail vein of the mice and transferred into a EDTA-K2 anticoagulative tube, into which 160 μL dilution liquid was added, and then assayed in an automatic blood cell analyzer. […]

[5] = system: leucocyte reduction in mice induced by cytarabine; experiment: Bone marrow nucleated cell count, mice injected with cytarabine; conditions: cytarabine model; one femur, day 15; positive control batyl alcohol 100 mg/kg intragastric
Method: [Worded in the source for another target; used here, by the source, with some conditions changed.] as §1
as §2, with “femur. […]” for “femur.”

[6] = system: leucocyte reduction in mice induced by X-ray radiation; experiment: Peripheral leucocyte assay, leucocyte reduction in mice induced by X-ray radiation; conditions: X-ray radiation model; positive control batyl alcohol 100 mg/kg intragastric
Method: [Worded in the source for another target; used here, by the source, with some conditions changed.] as §1, §3

[7] = system: leucocyte reduction in mice induced by X-ray radiation; experiment: Bone marrow nucleated cell count, mice after X-ray radiation; conditions: X-ray radiation model; one femur; positive control batyl alcohol 100 mg/kg intragastric

## CCCCCCCCCCCCCCCCCCOCC(O)CO (stereo not shown) [Positive control, batyl alcohol]
[1]
  WBC after modeling: 3.55 ± 1.21 ×10^9 and 4.64 ± 1.30 ×10^9 and 5.25 ± 1.30 ×10^9 and 6.13 ± 1.47 ×10^9 and 5.73 ± 1.60 ×10^9 and 6.25 ± 1.76 ×10^9
  WBC after treatment: 6.20 ± 1.82 ×10^9 and 7.34 ± 1.59 ×10^9 and 7.56 ± 1.80 ×10^9 and 8.23 ± 1.54 ×10^9 and 7.89 ± 1.60 ×10^9 and 8.96 ± 1.93 ×10^9
[2]
  Bone marrow BCM: 13.44 ± 2.36 ×10^6 and 11.87 ± 2.08 ×10^6 and 13.65 ± 2.42 ×10^6 and 14.73 ± 2.04 ×10^6 and 14.86 ± 2.28 ×10^6 and 15.72 ± 2.34 ×10^6
[3]
  Bone marrow DNA: 0.610 ± 0.138 and 0.629 ± 0.150 and 0.625 ± 0.162 and 0.730 ± 0.150 and 0.755 ± 0.128 and 0.958 ± 0.138
[4]
  WBC after modeling: 3.80 ± 1.03 ×10^9 and 4.67 ± 1.27 ×10^9 and 4.90 ± 1.43 ×10^9 and 4.16 ± 1.09 ×10^9 and 4.53 ± 1.28 ×10^9 and 6.62 ± 1.52 ×10^9
  WBC after treatment: 6.54 ± 1.93 ×10^9 and 6.85 ± 1.70 ×10^9 and 7.10 ± 1.88 ×10^9 and 7.26 ± 1.90 ×10^9 and 7.54 ± 1.62 ×10^9 and 8.52 ± 1.55 ×10^9
[5]
  Bone marrow BCM: 12.53 ± 2.24 ×10^6 and 13.95 ± 2.77 ×10^6 and 13.64 ± 2.19 ×10^6 and 14.32 ± 2.65 ×10^6 and 13.25 ± 2.31 ×10^6 and 13.58 ± 2.17 ×10^6
[6]
  WBC on day 8 after treatment: 3.66 ± 1.05 ×10^9 and 5.60 ± 1.28 ×10^9 and 5.87 ± 1.62 ×10^9 and 5.80 ± 1.44 ×10^9 and 5.32 ± 1.54 ×10^9 and 5.53 ± 1.28 ×10^9
  WBC on day 15 after treatment: 6.92 ± 1.98 ×10^9 and 7.04 ± 1.87 ×10^9 and 7.49 ± 1.52 ×10^9 and 7.88 ± 1.61 ×10^9 and 7.80 ± 1.43 ×10^9 and 8.03 ± 1.59 ×10^9
[7]
  Bone marrow BCM: 13.20 ± 2.02 ×10^6 and 12.43 ± 2.29 ×10^6 and 13.69 ± 2.65 ×10^6 and 14.57 ± 2.57 ×10^6 and 13.92 ± 2.57 ×10^6 and 14.78 ± 2.44 ×10^6
